# Patent publication US11046699B2, “Pyrazolo-pyrimidin-amino-cycloalkyl compounds and their therapeutic uses” (RAPT THERAPEUTICS, INC., priority 2018, dated 2021)
# Structures can show the parent of a compound that is named as a salt.
# Target: GCN2 (Homo sapiens, UniProt Q9P2K8)
# Assay: GCN2 enzymatic endpoint assay: phosphorylation of GFP-eIF2α measured by TR-FRET (Lanthascreen)
# Assay type: biochemical
# Details: GCN2 biochemical IC50; 4 nM GCN2, 2 μM ATP, 80 nM GFP-eIF2α, 90 min RT; read-out: GCN2 activity
# Summary of the method: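 Endpoint GCN2 reaction with low ATP (2 μM) and 80 nM GFP-eIF2α, room temperature, 90 minutes. Detection mix with EDTA and Tb-labelled antibody; 520 nm/495 nm emission ratio reported.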
# GCN2, sequence (Q9P2K8 whole entry): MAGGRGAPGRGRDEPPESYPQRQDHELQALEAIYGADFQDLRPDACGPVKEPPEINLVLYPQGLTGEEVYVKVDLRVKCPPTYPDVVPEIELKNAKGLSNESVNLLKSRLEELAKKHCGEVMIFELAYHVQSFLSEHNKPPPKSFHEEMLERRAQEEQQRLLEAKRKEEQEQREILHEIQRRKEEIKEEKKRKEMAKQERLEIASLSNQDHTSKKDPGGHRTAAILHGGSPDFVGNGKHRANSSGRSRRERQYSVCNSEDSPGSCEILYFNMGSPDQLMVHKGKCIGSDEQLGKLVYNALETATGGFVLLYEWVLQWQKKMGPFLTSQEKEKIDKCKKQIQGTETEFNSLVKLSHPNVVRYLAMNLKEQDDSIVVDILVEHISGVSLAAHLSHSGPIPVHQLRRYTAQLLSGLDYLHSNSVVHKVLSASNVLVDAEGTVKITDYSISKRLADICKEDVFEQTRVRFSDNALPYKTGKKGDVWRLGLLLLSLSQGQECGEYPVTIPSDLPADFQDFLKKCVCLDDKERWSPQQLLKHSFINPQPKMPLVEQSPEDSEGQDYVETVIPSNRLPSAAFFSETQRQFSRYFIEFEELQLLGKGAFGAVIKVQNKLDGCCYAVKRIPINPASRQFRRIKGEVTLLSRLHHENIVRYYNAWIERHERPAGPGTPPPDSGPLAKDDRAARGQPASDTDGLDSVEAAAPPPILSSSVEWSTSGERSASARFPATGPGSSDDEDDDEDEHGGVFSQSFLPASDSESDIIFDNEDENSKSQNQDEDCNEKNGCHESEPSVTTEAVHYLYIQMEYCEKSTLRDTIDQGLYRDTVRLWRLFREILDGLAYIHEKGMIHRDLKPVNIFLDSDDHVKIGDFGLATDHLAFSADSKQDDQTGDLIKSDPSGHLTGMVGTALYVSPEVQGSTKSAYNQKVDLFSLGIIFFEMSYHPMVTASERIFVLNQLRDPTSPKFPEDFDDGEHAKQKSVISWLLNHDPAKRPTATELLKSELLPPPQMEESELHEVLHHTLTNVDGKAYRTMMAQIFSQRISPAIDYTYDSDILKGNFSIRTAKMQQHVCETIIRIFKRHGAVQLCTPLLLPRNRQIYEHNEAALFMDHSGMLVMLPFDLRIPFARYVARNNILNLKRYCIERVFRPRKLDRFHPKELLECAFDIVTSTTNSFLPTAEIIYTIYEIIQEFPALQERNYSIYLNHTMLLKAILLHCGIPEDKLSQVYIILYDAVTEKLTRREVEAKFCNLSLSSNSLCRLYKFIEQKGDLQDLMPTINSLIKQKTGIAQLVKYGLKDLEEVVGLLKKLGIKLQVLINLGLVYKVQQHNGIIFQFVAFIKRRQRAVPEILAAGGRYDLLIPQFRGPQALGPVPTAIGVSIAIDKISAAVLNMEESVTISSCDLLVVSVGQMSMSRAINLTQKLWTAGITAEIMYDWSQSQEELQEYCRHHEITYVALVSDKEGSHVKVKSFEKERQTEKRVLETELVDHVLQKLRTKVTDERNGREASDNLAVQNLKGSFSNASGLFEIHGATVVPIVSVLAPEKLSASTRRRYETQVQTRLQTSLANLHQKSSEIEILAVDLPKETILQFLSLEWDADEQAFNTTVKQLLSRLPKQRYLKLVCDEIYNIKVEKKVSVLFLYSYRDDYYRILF
row,Structure (SMILES),IC50 [nM]
1,"CS(=O)(=O)N[C@@H]1CCC(Nc2ncc3c(Br)nn(-c4ccc5ncccc5c4)c3n2)C1 (mixture of isomers) [Example 15, N-(trans-3-((3-bromo-1-(quinolin-6-yl)-1H-pyrazolo[3,4-d]pyrimidin-6-yl)amino)cyclopentyl)methanesulfonamide]",200 to 500
2,"CNC(=O)[C@]1(C)CC[C@@H](Nc2ncc3c(Br)nn(-c4ccc(-c5ncco5)c(CC#N)c4)c3n2)C1 [Example 45, (1R,3R)-3-((3-bromo-1-(3-(cyanomethyl)-4-(oxazol-2-yl)phenyl)-1H-pyrazolo[3,4-d]pyrimidin-6-yl)amino)-N,1-dimethylcyclopentane-1-carboxamide; 2,2,2-trifluoroacetic acid]",25 to 200
3,"CNC(=O)[C@]1(CCC#N)CC[C@@H](Nc2ncc3c(Br)nn(-c4cc(F)c5ncccc5c4)c3n2)C1 [Example 43, (1S,3R)-3-((3-bromo-1-(8-fluoroquinolin-6-yl)-1H-pyrazolo[3,4-d]pyrimidin-6-yl)amino)-1-(2-cyanoethyl)-N-methylcyclopentane-1-carboxamide hydrochloride]",< 25

# Same assay, conditions: tested as described in Example 77; compound and/or hydrochloride, dihydrochloride or trifluoroacetic acid salt; read-out: IC 50 Activity
row,Structure (SMILES),IC50 [nM]
1,"CN1CN(C(=O)[C@]2(C)CC[C@@H](Nc3ncc4c(Br)nn(-c5cc(F)c6ncccc6c5)c4n3)C2)CC1=O [1-[(1R,3R)-3-[[3-bromo-1-(8-fluoro-6-quinolyl)pyrazolo[3,4-d]pyrimidin-6-yl]amino]-1-methyl-cyclopentanecarbonyl]-3-methyl-imidazolidin-4-one]",< 25
2,"CNC(=O)[C@]1(C)CC[C@@H](Nc2ncc3c(Br)nn(-c4cc(Cl)cc(C(=O)N(C)C)c4)c3n2)C1 [3-[3-bromo-6-[[(1R,3R)-3-methyl-3-(methylcarbamoyl)cyclopentyl]amino]pyrazolo[3,4-d]pyrimidin-1-yl]-5-chloro-N,N-dimethyl-benzamide]",25 to 200
3,"CNC(=O)C1(C)CC[C@@H](Nc2ncc3c(Br)nn(-c4cc(Cl)cc(CO)c4)c3n2)C1 (stereo partly drawn) [(3R)-3-[[3-bromo-1-[3-chloro-5-(hydroxy-methyl)phenyl]pyrazolo[3,4-d]pyrimidin-6-yl]amino]-N,1-dimethyl-cyclopentane-carboxamide]",25 to 200
4,"CNC(=O)[C@]1(C)CC[C@@H](Nc2ncc3c(Br)nn(-c4ccc(-c5ncco5)c(CC(=O)N(C)C)c4)c3n2)C1 [(1R,3R)-3-[[3-bromo-1-[3-[2-(dimethylamino)-2-oxo-ethyl]-4-oxazol-2-yl-phenyl]pyrazolo [3,4-d]pyrimidin-6-yl]amino]-N,1-dimethyl-cyclopentanecarboxamide]",25 to 200
5,"O[C@H]1CCC[C@@H]1Nc1ncc2c(Br)nn(-c3cc(F)c4ncccc4c3)c2n1 [(1S,2S)-2-[[3-bromo-1-(8-fluoro-6-quinolyl)pyrazolo[3,4-d]pyrimidin-6-yl]amino] cyclopentanol]",25 to 200
6,"CNC(=O)[C@]1(C)CC[C@@H](Nc2ncc3c(Br)nn(-c4ccc5c(c4)CCNC5=O)c3n2)C1 [(1R,3R)-3-[[3-bromo-1-(1-oxo-3,4-dihydro-2H-isoquinolin-6-yl)pyrazolo[3,4-d]pyrimidin-6-yl]amino]-N,1-dimethyl-cyclopentanecarboxamide]",25 to 200
7,"C[C@H]1CN(C)C(=O)CN1C(=O)[C@@H]1CC[C@@H](Nc2ncc3c(Br)nn(-c4cc(F)c5ncccc5c4)c3n2)C1 [(S)-4-((1R,3R)-3-((3-bromo-1-(8-fluoroquinolin-6-yl)-1H-pyrazolo[3,4-d]pyrimidin-6-yl)amino)cyclopentane-1-carbonyl)-1,5-dimethyl-piperazin-2-one]",25 to 200
8,Cc1nnc(-c2ccc(-n3nc(Br)c4cnc(N[C@@H]5CC[C@@](C)(C#N)C5)nc43)cc2)s1,25 to 200
9,"CNC(=O)[C@@H]1CC[C@@H](Nc2ncc3c(Br)nn(-c4cc(F)c5nc(C)c(F)cc5c4)c3n2)C1 [(1R,3R)-3-((3-bromo-1-(3,8-difluoro-2-methyl-quinolin-6-yl)-1H-pyrazolo[3,4-d]pyrimidin-6-yl)amino)-N-methylcyclopentane-1-carboxamide]",25 to 200
10,"O=C([C@@H]1CC[C@@H](Nc2ncc3c(Br)nn(-c4ccc5ncccc5c4)c3n2)C1)N1CCNCC1 [((1R,3R)-3-((3-bromo-1-(quinolin-6-yl)-1H-pyrazolo[3,4-d]pyrimidin-6-yl)amino)cyclo-pentyl)(piperazin-1-yl)methanone]",25 to 200
11,"CN1CN(C(=O)[C@@]2(C)CC[C@@H](Nc3ncc4c(Br)nn(-c5cc(F)c6ncccc6c5)c4n3)C2)CC1=O [1-[(1S,3R)-3-[[3-bromo-1-(8-fluoro-6-quinolyl)pyrazolo[3,4-d]pyrimidin-6-yl]amino]-1-methyl-cyclopentanecarbonyl]-3-methyl-imidazolidin-4-one]",25 to 200
12,CNC(=O)[C@]1(C)CC[C@@H](Nc2ncc3c(Br)nn(-c4cc(Br)cc(C(C)O)c4)c3n2)C1 (stereo partly drawn),25 to 200
13,"COCCNC(=O)[C@@]1(C)CC[C@@H](Nc2ncc3c(Br)nn(-c4ccc5ncccc5c4)c3n2)C1 [(1S,3R)-3-((3-bromo-1-(quinolin-6-yl)-1H-pyrazolo[3,4-d]pyrimidin-6-yl)amino)-N-(2-methoxyethyl)-1-methylcyclopentane-1-carboxamide]",500 to 1000
14,"CN=S(C)(=O)CCNC(=O)[C@@H]1CC[C@@H](Nc2ncc3c(Br)nn(-c4cc(F)c5ncccc5c4)c3n2)C1 (stereo partly drawn) [(1R,3R)-3-((3-bromo-1-(8-fluoroquinolin-6-yl)-1H-pyrazolo[3,4-d]pyrimidin-6-yl)amino)-N-(2-(N,S-dimethylsulfonimidoyl)ethyl)cyclopentane-1-carboxamide]",< 25
15,"C[C@H]1CN(C(=O)[C@@H]2CC[C@@H](Nc3ncc4c(Br)nn(-c5ccc6ncccc6c5)c4n3)C2)C[C@H](C)O1 [((1R,3R)-3-((3-bromo-1-(quinolin-6-yl)-1H-pyrazolo[3,4-d]pyrimidin-6-yl)amino)cyclo-pentyl)((2S,6S)-2,6-dimethylmorpholino) methanone]",25 to 200
16,CS(=O)(=O)CCNC(=O)[C@@H]1CC[C@@H](Nc2ncc3c(Br)nn(-c4ccc5ncc(F)cc5c4)c3n2)C1,200 to 500
17,"CNC(=O)[C@]1(C)CC[C@@H](Nc2ncc3c(Br)nn(-c4ccc(-c5ncco5)c(C(C)(C)CN)c4)c3n2)C1 [(1R,3R)-3-[[1-[3-(2-amino-1,1-dimethyl-ethyl)-4-oxazol-2-yl-phenyl]-3-bromo-pyrazolo[3,4-d]pyrimidin-6-yl]amino]-N,1-dimethyl-cyclopentanecarboxamide]",25 to 200
18,"CNC(=O)[C@]1(C)CC[C@@H](Nc2ncc3c(Br)nn(-c4cc(CS(C)(=O)=O)c5ncccc5c4)c3n2)C1 [(1R,3R)-3-[[3-bromo-1-[8-(methylsulfonyl-methyl)-6-quinolyl]pyrazolo[3,4-d]pyrimidin-6-yl]amino]-N,1-dimethyl-cyclopentanecarboxamide]",25 to 200
19,CNC(=O)C1(C)CC[C@@H](Nc2ncc3c(Br)nn(-c4cc(CO)cc(C(C)(C)C)c4)c3n2)C1 (stereo partly drawn),25 to 200
20,"O=C1CN(C(=O)[C@@H]2CC[C@@H](Nc3ncc4c(Br)nn(-c5cc(C(F)F)c6ncccc6c5)c4n3)C2)CCN1 [4-((1R,3R)-3-((3-bromo-1-(8-(difluoromethyl)quinolin-6-yl)-1H-pyrazolo[3,4-d]pyrimidin-6-yl)amino)cyclopentane-1-carbonyl)piperazin-2-one]",25 to 200
21,"CNC(=O)[C@]1(C)CC[C@@H](Nc2ncc3c(Br)nn(-c4ccc(C5=NOCC5)cc4)c3n2)C1 [(1R,3R)-3-[[3-bromo-1-[4-(4,5-dihydro-isoxazol-3-yl)phenyl]pyrazolo[3,4-d]pyrimidin-6-yl]amino]-N,1-dimethyl-cyclopentanecarboxamide]",25 to 200
22,CNC(=O)[C@]1(C)CC[C@@H](Nc2ncc3c(Br)nn(-c4cc(Cl)c(F)c(CS(C)(=O)=O)c4)c3n2)C1,25 to 200
23,"CNC(=O)[C@]1(COC)CC[C@@H](Nc2ncc3c(I)nn(-c4cc(F)c5ncccc5c4)c3n2)C1 [(1R,3R)-3-[[1-(8-fluoro-6-quinolyl)-3-iodo-pyrazolo[3,4-d]pyrimidin-6-yl]amino]-1-(methoxymethyl)-N-methyl-cyclopentane-carboxamide]",< 25
24,"O=C(N[C@H]1CCOC1)[C@@H]1CC[C@@H](Nc2ncc3c(Br)nn(-c4ccc5ncccc5c4)c3n2)C1 [(1R,3R)-3-((3-bromo-1-(quinolin-6-yl)-1H-pyrazolo[3,4-d]pyrimidin-6-yl)amino)-N-((S)-tetrahydrofuran-3-yl)cyclopentane-1-carboxamide]",25 to 200
25,"CO[C@@H]1CC[C@@H](Nc2ncc3c(Br)nn(-c4cc(F)c5ncccc5c4)c3n2)C1 [3-bromo-1-(8-fluoro-6-quinolyl)-N-[(1R,3R)-3-methoxycyclopentyl]pyrazolo[3,4-d] pyrimidin-6-amine]",25 to 200
26,"CCS(=O)(=O)N1Cc2ccc(-n3nc(Br)c4cnc(N[C@@H]5CC[C@@](C)(C(=O)NC)C5)nc43)cc2C1 [(1R,3R)-3-[[3-bromo-1-(2-ethylsulfonyl-isoindolin-5-yl)pyrazolo[3,4-d]pyrimidin-6-yl]amino]-N,1-dimethyl-cyclopentane-carboxamide]",25 to 200
27,"CNC(=O)[C@]1(C)CC[C@@H](Nc2ncc3c(Br)nn(-c4ccc(-c5ncco5)c(NC(=O)CCN)c4)c3n2)C1 [(1R,3R)-3-[[1-[3-(3-aminopropanoyl-amino)-4-oxazol-2-yl-phenyl]-3-bromo-pyrazolo[3,4-d]pyrimidin-6-yl]amino]-N,1-dimethyl-cyclopentane-carboxamide]",< 25
28,"CNC(=O)[C@]1(C)CCC(Nc2ncc3c(Br)nn(-c4ccc5c(c4)NC(=O)CC5)c3n2)C1 (stereo partly drawn) [(1R)-3-[[3-bromo-1-(2-oxo-3,4-dihydro-1H-quinolin-7-yl)pyrazolo[3,4-d]pyrimidin-6-yl]amino]-N,1-dimethyl-cyclopentane-carboxamide]",25 to 200
29,Cc1nnc(-c2ccc(-n3nc(Br)c4cnc(N[C@@H]5CC[C@@]6(CCNC6=O)C5)nc43)cc2)s1,25 to 200
30,"Cn1ccnc1-c1ccc(-n2nc(Br)c3cnc(N[C@@H]4CC[C@@H](C(=O)NCCS(C)(=O)=O)C4)nc32)cc1 [(1R,3R)-3-((3-bromo-1-(4-(1-methyl-1H-imidazol-2-yl)phenyl)-1H-pyrazolo[3,4-d]pyrimidin-6-yl)amino)-N-(2-(methyl-sulfonyl)ethyl)cyclopentane-1-carboxamide]",500 to 1000
